Experimental data published in patent US6881725B2, “Method for treating pain” (Inspire Pharmaceuticals Inc., priority 2002, dated 2005).

Key:
[1] = test system: mice; test: Formalin assay for persistent inflammatory pain (phase II) in mice; type: in vivo, mouse; conditions: 5% formalin s.c. right hindpaw; compound s.c. same paw 10 minutes after formalin; 10-30 minutes post formalin; across doses
Protocol: This example illustrates the effect of AP4AmA in mice in phase II of the formalin assay for persistent inflammatory pain. In brief, mice were injected 20 microliters of a 5% full strength formalin solution subcutaneously (s.c.) into the dorsal aspect of the right hindpaw. The mice were returned to the observation cage. The mice were injected 10 microliters s.c. into the same dorsal aspect of the right hindpaw with either vehicle or AP4AmA in varying concentrations 10 minutes after the formalin injection. […]

[2] = test system: mice; test: Acetic acid-induced abdominal constriction assay for visceral pain in mice; type: in vivo, mouse
Protocol: (§1) These examples illustrate the effects of AP4AmA in two similar models of abdominal constriction; acetic acid-induced and phenylbenzoquinone-induced constrictions in mice. The method employed in FIGS. 2A and […] was a modification of the abdominal constriction test described by Collier et. al (Collier, H, O. et. al, Br. J. Pharmacol. Chemother. 32:295-310 (1968)).
Briefly, in FIG. 2A, each animal, received an intraperitoneal (i.p.) injection of 0.9% acetic acid in a volume of 10 mL/kg. The mouse was placed in an observation chamber shortly after the acetic acid injection and allowed to explore. Testing started five minutes after the acetic acid injection and consisted of 10 minutes of observation during which the number of abdominal constrictions was counted. Abdominal constriction was defined as a lengthwise stretching of the torso with concave arching of the back. AP4AmA and vehicle were administered i.p., in a volume of 10 mL/kg, 3 minutes prior to the administration of acetic acid while Morphine was administered i.p., in a volume of 10 mL/kg, 25 minutes prior to the administration of acetic acid.

[3] = test system: mice; test: Hotplate assay for acute pain in mice; type: in vivo, mouse
Protocol: The action of P^1-5′-[2′-(O)—,3′-(O)-(benzyl)methylenedioxy]adenosine-P^4-5″-adenosine tetraphosphate, (AP4AmA; AP4A-2′, 3′-mono-acetal with phenylacetaldehyde) on mice in the hotplate model illustrates the analgesic affect of compounds of Formula I. The temperature of the hot plate was set at 55 degrees Celsius. Animals were administered subcutaneously AP4AmA or saline into the dorsal aspect of both hind paws in a volume of 20 microliters. This administration occurred 5 minutes prior to placement on the hotplate. Morphine was administered subcutaneously into the back nape of the mouse's neck in a volume of 10 mL/kg.
The time to hindpaw lick was used as the efficacy endpoint.

[4] = test system: mice; test: Phenylbenzoquinone-induced abdominal constriction assay for visceral pain in mice; type: in vivo, mouse
Protocol: as §1
Briefly, in FIG. 2B, each animal received an i.p. injection of 0.02% phenylbenzoquinone in a volume of 10 mL/kg. The mouse was placed in an observation chamber shortly after the acetic acid injection and allowed to explore. Testing started five minutes after the acetic acid injection and consisted of 5 minutes of observation during which the number of abdominal constrictions was counted. Abdominal constriction was defined as a lengthwise stretching of the torso with concave arching of the back. AP4AmA and vehicle were administered i.p., in a volume of 10 mL/kg, 3 minutes prior to the administration of acetic acid while morphine was administered i.p., in a volume of 10 mL/kg, 30 minutes prior to the administration of acetic acid.

[5] = test system: rats; test: Spinal Nerve (L5/L6) Ligation model for neuropathic pain (tactile allodynia, von Frey) in rats; type: in vivo; conditions: rat
[6] = test system: rats; conditions: Jarvis and Kowaluk, 2001; cited from earlier work
[7] = mouse hotplate, highest dose of AP4AmA

| Molecule | duration of time spent licking the inflamed hind paw [1] | number of abdominal constrictions ([2]; 0.9% acetic acid i.p., compound i.p. 3 minutes prior, across doses) | number of abdominal constrictions, compared with morphine ([2]; acetic acid model, 100 mg/kg AP4AmA i.p.) | time to hindpaw lick, maximal percent effect (MPE %) ([3]; mouse hotplate 55 degrees Celsius, s.c. into both hind paws 5 minutes before, across doses) | time to hindpaw lick, maximal percent effect, compared with morphine [3, 7] | time to hindpaw lick, maximal percent effect, compared with vehicle control [3, 7] | number of abdominal constrictions ([4]; 0.02% phenylbenzoquinone i.p., compound i.p. 3 minutes prior, across doses) | number of abdominal constrictions, compared with morphine ([4]; phenylbenzoquinone model, 30 mg/kg AP4AmA i.p.) | gram force required to induce withdrawal of the allodynic hindpaw, compared with morphine ([5]; von Frey filaments) | gram force required to induce withdrawal of the allodynic hindpaw, compared with vehicle control ([5]; von Frey filaments) | reversal of allodynia ([5]; 0.03 mg/mL, 50 microliters subplantar, 60 minutes prior to testing, versus morphine i.p. 16 mg/kg) | antinociceptive effects [6] |
| --- | --- | --- | --- | --- | --- | --- | --- | --- | --- | --- | --- | --- |
| Nc1ncnc2c1ncn2[C@@H]1O[C@H](COP(=O)(O)OP(=O)(O)OP(=O)(O)OP(=O)(O)OC[C@H]2O[C@@H](n3cnc4c(N)ncnc43)[C@@H]3OC(Cc4ccccc4)O[C@@H]32)[C@@H](O)[C@H]1O (stereo partly drawn) [AP4AmA, P^1-5′-[2′-(O)—,3′-(O)-(benzyl)methylenedioxy]adenosine-P^4-5″-adenosine tetraphosphate] | dose dependent pharmacological effect | dose dependent pharmacological effect | not statistically different from morphine | dose dependent pharmacological effect | statistically equivalent to morphine | statistically significant from vehicle control | dose dependent pharmacological effect | not statistically different from morphine | not statistically different from morphine | significantly different from vehicle control | can reverse the allodynia in the rat to an equivalent level as morphine |  |
| TNP-ATP |  |  |  |  |  |  |  |  |  |  |  | produce antinociceptive effects in rats |
